Earlier results in PubChem BioAssay AID1259409 (Chemical Carcinogenesis Research Information System (CCRIS), 2018).

System: rodent chemically induced tumor inhibition, incidence and multiplicity
Experiment: CCRIS tumor inhibitor studies

Q: Which “tumour outcome (control, treated, inhibition, significance)” value (Carcinogen: 4-(METHYLNITROSAMINO)-1-(3-PYRIDYL)-1-BUTANONE, 64091-91-4, Dose [Inhibitor]: 0, 5 UMOL 1/D FOR 4 D ADMINISTERED PRIOR TO CARCINOGEN DOSE (STUDY DURATION: 116 D), Route [Inhibitor]: GAVAGE, Species: MOUSE, Strain/Sex: STRAIN-A, Target Tissue: Type of Lesion: LUNG: ADENOMA, Dose [Carcinogen]: 10 UMOL IN SALINE ADMINISTERED 2 HR POST LAST AGENT DOSE, Promoter: NONE USED) does the source give for `S=C=Nc1ccccc1` here?
A: 100%, 100%, 0%

Q: And the “tumour outcome (control, treated, inhibition, significance)” value (Carcinogen: 4-(METHYLNITROSAMINO)-1-(3-PYRIDYL)-1-BUTANONE, 64091-91-4, Dose [Inhibitor]: 0, 5 UMOL 1/D FOR 4 D ADMINISTERED PRIOR TO CARCINOGEN TREATMENT (STUDY DURATION: 116 D), Route [Inhibitor]: GAVAGE, Species: MOUSE, Strain/Sex: STRAIN A, Target Tissue: Type of Lesion: LUNG: ADENOMA, Dose [Carcinogen]: 10 UMOL ONCE, 2 HR AFTER FINAL DOSE OF INHIBITOR, Promoter: NONE USED)?
A: 100%, 100%, 0%, not significant

Q: What about the “tumour outcome (control, treated, inhibition, significance)” value (Carcinogen: 4-(METHYLNITROSAMINO)-1-(3-PYRIDYL)-1-BUTANONE, 64091-91-4, Dose [Inhibitor]: 0, 5 UMOL/D FOR 4 CONSECUTIVE DAYS (STUDY DURATION: 17 WK), Route [Inhibitor]: GAVAGE, Species: MOUSE, Strain/Sex: STRAIN-A/FEMALE, Target Tissue: Type of Lesion: LUNG: ADENOMA, Dose [Carcinogen]: 10 UMOL ONCE 2 HR POST LAST AGENT DOSE, Promoter: NONE USED) of the same compound?
A: 100%, 100%, 0%, not significant

Q: And the “tumour outcome (control, treated, inhibition, significance)” value (Carcinogen: 4-(METHYLNITROSAMINO)-1-(3-PYRIDYL)-1-BUTANONE, 64091-91-4, Dose [Inhibitor]: 5 UMOL/D FOR 4 CONSECUTIVE DAYS (STUDY DURATION: 16 WK), Route [Inhibitor]: GAVAGE, Species: MOUSE, Strain/Sex: STRAIN-A/FEMALE, Target Tissue: Type of Lesion: LUNG: ADENOMA, Dose [Carcinogen]: 10 UMOL ONCE 2 HR POST LAST AGENT DOSE, Promoter: NONE USED)?
A: 30/30 (100%), 30/30 (100%), 0%

Q: And the “tumour outcome (control, treated, inhibition, significance)” value (Carcinogen: 4-(N-NITROSOMETHYLAMINO)-1-(3-PYRIDYL)-1-BUTANONE, 64091-91-4, Dose [Inhibitor]: 0, 5 UMOL/D FOR 4 CONSECUTIVE DAYS (STUDY DURATION: 16.5 WK), Route [Inhibitor]: GAVAGE, Species: MOUSE, Strain/Sex: STRAIN-A/FEMALE, Target Tissue: Type of Lesion: LUNG: ADENOMA, Dose [Carcinogen]: 10 UMOL ONCE 2 HR POST LAST AGENT DOSE, Promoter: NONE USED)?
A: 100%, 100%, 0%, not significant

Q: What about the “tumour outcome (control, treated, inhibition, significance)” value (Carcinogen: 7,12-DIMETHYLBENZ[A]ANTHRACENE, 57-97-6, Dose [Inhibitor]: 23 MG ONCE 4 HR PRIOR TO CARCINOGEN DOSE (STUDY DURATION: 18 WK), Route [Inhibitor]: INTRAGASTRIC, Species: RAT, Strain/Sex: SPRAGUE-DAWLEY/FEMALE, Target Tissue: Type of Lesion: MAMMARY GLAND: TUMOR, Dose [Carcinogen]: 12 MG IN 1 ML OLIVE OIL AT AGE 7 WK, Promoter: NONE USED) of the same compound?
A: 86%, 46%, 46%, p<0.05

Q: For `ClC(Cl)(Cl)Cl`, which “tumour outcome (control, treated, inhibition, significance)” value (Carcinogen: 1,2-DIMETHYLHYDRAZINE, 540-73-8, Dose [Inhibitor]: 0, 1.5 ML/KG BW IN CORN OIL ADMINISTERED 2 HR PRIOR TO EACH CARCINOGEN DOSE (STUDY DURATION: 8 MO), Route [Inhibitor]: GAVAGE, Species: RAT, Strain/Sex: BD6/MALE, Target Tissue: Type of Lesion: INTESTINE: TUMOR, Dose [Carcinogen]: 20 MG/KG BW 1/WK FOR 20 WK, Promoter: NONE USED) is on record?
A: 100%, 0%, 100%, not calculated

Q: Which “tumour outcome (control, treated, inhibition, significance)” value (Carcinogen: DIMETHYLBENZANTHRACENE, 57-97-6, Dose [Inhibitor]: APPLIED 3 MIN POST EACH PROMOTER DOSE 3/WK FOR 20 WK BEGINNING 3 D POST CARCINOGEN DOSE (STUDY DURATION: 20 WK), Route [Inhibitor]: DERMAL, Species: MOUSE, Strain/Sex: SWISS/?, Target Tissue: Type of Lesion: SKIN: TUMOR, Dose [Carcinogen]: 250 UG/0.25 ML ONCE, Promoter: CROTON OIL, 8001-28-3) does the source give for `CCCCCCCCCCCC(=O)OCC(COC(=O)CCCCCCCCCCC)OC(=O)CCCCCCCCCCC` here?
A: 100%, 0%, 100%, not calculated
